From patent US9744148B2, “Kallikrein 7 inhibitors” (SIXERA PHARMA AB, priority 2014, dated 2017) come the findings set out here.

Molecules are shown by their SMILES. pIC50: −log10 of the molar value.

The target in the assay is Active human KLK7 (SCCE) (Homo sapiens (Human), UniProt P49862). Kind of assay: KLK7 Inhibitor Test. The format is biochemical. The settings on record: substrate MeO-Suc-Arg-Pro-Tyr-pNA, pH 7.2, 37° C., absorbance at 405 nm. As to the method: KLK7 Inhibitor Test Substrate:(MeO-Suc-[…]), acetate salt, Peptide international, lot #906841, previously named S-2586 Enzyme: […] Buffer: 10 mM NaPhospate, 0.5 M NaCl, pH 7.2 […] 10 μl of substance in DMSO was added to wells giving final concentrations of 20 μ[…], and 0.15625 μM. 40 μl of active KLK7 (SCCE) (diluted to 12.5 μg/ml in activity buffer) was added all wells except blank to which activity buffer was added. […] The mean value V of each sample was calculated (n=2 for the substances and n=4 for the control). From the values of V the % of total activity was calculated as (Vinhibitor/Vcontrol (no inhibitor))×100. Plotting and calculation was then done in originPro. % of total activity (y) was plotted vs. log [inhibitor] (log x) and a function of dose response y=A1+(A2-A1)/(1+10^((LOG(x0)-x)*p)) where A1=Bottom platue, A2=Top platue, x0=EC50 and p=Hill slope was fitted to the curve. […] The IC50 values were used to identify KLK7 inhibitors according to the invention.
Active human KLK7 (SCCE), sequence (P49862 30-253): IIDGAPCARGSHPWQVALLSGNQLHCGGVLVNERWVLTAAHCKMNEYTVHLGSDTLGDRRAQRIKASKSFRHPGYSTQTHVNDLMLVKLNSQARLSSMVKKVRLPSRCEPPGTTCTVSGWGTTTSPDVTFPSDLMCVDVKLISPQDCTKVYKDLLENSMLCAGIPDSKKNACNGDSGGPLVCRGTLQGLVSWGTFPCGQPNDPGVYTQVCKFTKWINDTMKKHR
In turn, `Cc1cc(NC(=O)C(OC(=O)C(c2ccccc2)c2ccccc2)C(C)C)no1` (stereo not drawn) [Compound 79, [2-methyl-1-[(5-methylisoxazol-3-yl)carbamoyl]propyl] 2,2-diphenylacetate] had a pIC50 of 5.34.

`Cc1cc(NC(=O)COC(=O)C(c2ccccc2)c2ccccc2)no1` [Compound 80] gave a pIC50 of 5.33.

In turn, `Cc1cc(NC(=O)COC(=O)Cc2ccc(Cl)cc2)no1` [Compound 81, [2-[(5-methylisoxazol-3-yl)amino]-2-oxo-ethyl] 2-(4-chlorophenyl)acetate] gave a pIC50 of 5.30.

The compound `CCC(OC(=O)C(CCSC)NC(=O)c1ccccc1)C(=O)Nc1cc(C)on1` (stereo not drawn) [Compound 82] showed a pIC50 of 5.26.

`CC(OC(=O)C(NC(=O)c1ccccc1)c1ccccc1)C(=O)NCc1ccccc1` (stereo not drawn) [Compound 83, [2-(benzylamino)-1-methyl-2-oxo-ethyl] 2-benzamido-2-phenyl-acetate]: the pIC50 is 5.23.

In the case of `COc1ccc(CC(=O)OC(C(=O)Nc2cc(C)on2)C(C)C)cc1` (stereo not drawn) [Compound 84, [2-methyl-1-[(5-methylisoxazol-3-yl)carbamoyl]propyl] 2-(4-methoxyphenyl)acetate], the pIC50 was 5.20. This pIC50 and that of the compound before are within 0.2 log units of each other.

`CCC(OC(=O)C(NC(=O)c1ccccc1)c1ccccc1)C(=O)Nc1cc(C)on1` (stereo not drawn) [Compound 85] had a pIC50 of 5.19.

On to `Cc1cc(NC(=O)COC(=O)C(c2ccccc2)c2ccccc2)no1` [Compound 86], for which the negative-log IC50 (pIC50) is 5.18.

`COc1ccc(NC(=O)COC(=O)C(c2ccccc2)c2ccccc2)cc1` [Compound 87]: the pIC50 is 5.13.

As for `O=C(COC(=O)C(c1ccccc1)c1ccccc1)Nc1ccc(F)cc1` [Compound 88], the pIC50 was 5.07.

In turn, `CCC(OC(=O)C(CC(C)C)NC(=O)c1ccccc1)C(=O)Nc1cc(C)on1` (stereo not drawn) [Compound 89] gave a pIC50 of 5.04.

In turn, `O=C(COC(=O)C(c1ccccc1)c1ccccc1)Nc1ccccc1` [Compound 90] had a negative-log IC50 (pIC50) of 4.95. This pIC50 and that of the compound before are within 0.2 log units of each other.

Compound `CC(C)C(OC(=O)Cc1ccc(Cl)cc1)C(=O)Nc1ccccc1` (stereo not drawn) [Compound 91, [2-methyl-1-(phenylcarbamoyl)propyl] 2-(4-chlorophenyl)acetate] showed a negative logarithm of the IC50 (pIC50) of 5.39.

For the compound `COc1ccc(NC(=O)C(OC(=O)Cc2ccc(Cl)cc2)C(C)C)cc1` (stereo not drawn) [Compound 92, [1-[(4-methoxyphenyl)carbamoyl]-2-methyl-propyl] 2-(4-chlorophenyl)acetate], the pIC50 was 5.42.

`CC(C)C(OC(=O)C(NC(=O)c1ccccc1)c1ccccc1)C(=O)Nc1ccccc1` (stereo not drawn) [Compound 93, [2-methyl-1-(phenylcarbamoyl)propyl] 2-benzamido-2-phenyl-acetate] gave a pIC50 of 5.64.

With `COc1ccc(CC(=O)OC(C(=O)Nc2ccccc2)C(C)C)cc1` (stereo not drawn) [Compound 94, [2-methyl-1-(phenylcarbamoyl)propyl] 2-(4-methoxyphenyl)acetate], the pIC50 is 5.44.

Compound `COc1ccc(NC(=O)C(OC(=O)C(NC(=O)c2ccccc2)c2ccccc2)C(C)C)cc1` (stereo not drawn) [Compound 95, [1-[(4-methoxyphenyl)carbamoyl]-2-methyl-propyl] 2-benzamido-2-phenyl-acetate] gave a pIC50 of 5.20.

In turn, `CC(C)C(OC(=O)C(NC(=O)c1ccccc1)c1ccccc1)C(=O)Nc1ccc(F)cc1` (stereo not drawn) [Compound 96, [1-[(4-fluorophenyl)carbamoyl]-2-methyl-propyl] 2-benzamido-2-phenyl-acetate] showed a pIC50 of 5.43.
